Source: PMC6001238, “Iterative Chemical Engineering of Vancomycin Leads to Novel Vancomycin Analogs With a High in Vitro Therapeutic Index” (Frontiers in Microbiology, 2018)
≈ marks a conversion by molar mass, not a printed value.

Experiments:
MRSA KS1 = experiment: MIC, broth microdilution, MRSA KS1; type: cell-based, Staphylococcus aureus; conditions: for MIC-fold improvement vs. vancomycin: MRSA KS1, ratio of MIC of vancomycin and MIC of analogue; for MIC: Staphylococcus aureus MRSA KS1, read-out: MIC
Summary of the method: (§1)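 Broth microdilution per CLSI; controls = ultrapure water, non-inoculated broth. One set: + vancomycin 10 μM final alongside test analogue/control drug.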

S. aureus VISA/HIP5827 = experiment: MIC, broth microdilution, vancomycin-intermediate S. aureus VISA HIP5827; type: cell-based, Staphylococcus aureus; conditions: for MIC: Staphylococcus aureus VISA/HIP5827, read-out: MIC; for MIC-fold improvement vs. vancomycin: VISA/HIP5827, ratio of MIC of vancomycin and MIC of analogue
Summary of the method: as §1

[1] = system: Murine leukemia (L1210) cells; experiment: Cytostatic activity, L1210 cell proliferation; type: cell-based; conditions: mean ± SD of three experiments; highest concentration tested 250 µM; 2 days; read-out: Toxicity (IC50) L1210
Summary of the method: (§2)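 Readout: Coulter cell number after drug exposure at 37°C. Durations differ by line (L1210 2 days; CEM 3 days; HeLa 4 days). Stock suspension 300,000–500,000 cells/mL, diluted by mixing with compound. Endpoint: IC50 vs negative control.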

MRSA KS89 = experiment: MIC, broth microdilution, MRSA KS89; type: cell-based, Staphylococcus aureus; conditions: for MIC-fold improvement vs. vancomycin: MRSA KS8, ratio of MIC of vancomycin and MIC of analogue; for MIC: Staphylococcus aureus MRSA KS8, read-out: MIC
Summary of the method: as §1

[2] = system: human T-lymphocyte (CEM) cells; experiment: Cytostatic activity, CEM cell proliferation; type: cell-based; conditions: mean ± SD of three experiments; highest concentration tested 250 µM; 3 days; read-out: Toxicity (IC50) CEM
Summary of the method: as §2

MRSA KS2 = experiment: MIC, broth microdilution, MRSA KS2; type: cell-based, Staphylococcus aureus; conditions: for MIC-fold improvement vs. vancomycin: MRSA KS2, ratio of MIC of vancomycin and MIC of analogue; for MIC: Staphylococcus aureus MRSA KS2, read-out: MIC
Summary of the method: as §1

E. faecalis VRE 6 = experiment: MIC, broth microdilution, vancomycin-resistant E. faecalis VRE 6 (VanA); type: cell-based, Enterococcus faecalis; conditions: for MIC: Enterococcus faecalis VRE 6 (vancomycin-resistant), read-out: MIC; for MIC-fold improvement vs. vancomycin: VRE 6, ratio of MIC of vancomycin and MIC of analogue
Summary of the method: as §1

E. faecalis VRE 29 = experiment: MIC, broth microdilution, vancomycin-resistant E. faecalis VRE 29 (VanA); type: cell-based, Enterococcus faecalis; conditions: for MIC: Enterococcus faecalis VRE 29 (vancomycin-resistant), read-out: MIC; for MIC-fold improvement vs. vancomycin: VRE 29, ratio of MIC of vancomycin and MIC of analogue
Summary of the method: as §1

E. faecalis VRE 37 = experiment: MIC, broth microdilution, vancomycin-resistant E. faecalis VRE 37 (VanA); type: cell-based, Enterococcus faecalis; conditions: for MIC: Enterococcus faecalis VRE 37 (vancomycin-resistant), read-out: MIC; for MIC-fold improvement vs. vancomycin: VRE 37, ratio of MIC of vancomycin and MIC of analogue
Summary of the method: as §1

[3] = system: human cervix carcinoma (HeLa) cells; experiment: Cytostatic activity, HeLa cell proliferation; type: cell-based; conditions: mean ± SD of three experiments; highest concentration tested 250 µM; 4 days; read-out: Toxicity (IC50) HeLa
Summary of the method: as §2

S. aureus VRSA = experiment: MIC, broth microdilution, vancomycin-resistant S. aureus (VRSA); type: cell-based, Staphylococcus aureus; conditions: for MIC: Staphylococcus aureus VRSA, read-out: MIC; for MIC-fold improvement vs. vancomycin: VRSA, ratio of MIC of vancomycin and MIC of analogue
Summary of the method: as §1

[4] = system: S. aureus VSSA (ATCC 6538); experiment: MIC, broth microdilution, vancomycin-sensitive S. aureus (VSSA/MSSA, ATCC 6538); type: cell-based, Staphylococcus aureus; conditions: for MIC: Staphylococcus aureus VSSA, read-out: MIC; for MIC-fold improvement vs. vancomycin: VSSA, ratio of MIC of vancomycin and MIC of analogue
Summary of the method: as §1

E. faecalis VSE 1 = experiment: MIC, broth microdilution, vancomycin-sensitive E. faecalis (VSE 1); type: cell-based, Enterococcus faecalis; conditions: for MIC: Enterococcus faecalis VSE 1 (vancomycin-sensitive), read-out: MIC; for MIC-fold improvement vs. vancomycin: VSE 1, ratio of MIC of vancomycin and MIC of analogue
Summary of the method: as §1

[5] = system: L1210, CEM and HeLa cell lines; experiment: Cytostatic activity, average or summary over L1210, CEM and HeLa; type: cell-based; conditions: average of L1210, CEM and HeLa; read-out: Toxicity (IC50) Average
Summary of the method: as §2

E. faecalis VRE 53 = experiment: MIC, broth microdilution, vancomycin-resistant E. faecalis VRE 53 (VanA); type: cell-based, Enterococcus faecalis; conditions: for MIC: Enterococcus faecalis VRE 53 (vancomycin-resistant), read-out: MIC; for MIC-fold improvement vs. vancomycin: VRE 53, ratio of MIC of vancomycin and MIC of analogue
Summary of the method: as §1

MRSA KS6 = experiment: MIC, broth microdilution, MRSA KS6; type: cell-based, Staphylococcus aureus; conditions: for MIC-fold improvement vs. vancomycin: MRSA KS6, ratio of MIC of vancomycin and MIC of analogue; for MIC: Staphylococcus aureus MRSA KS6, read-out: MIC
Summary of the method: as §1

Row | Compound | MIC-fold improvement vs. vancomycin (MRSA KS1) | MIC (MRSA KS1) [µM] | MIC (S. aureus VISA/HIP5827) [µM] | MIC-fold improvement vs. vancomycin (S. aureus VISA/HIP5827) | IC50 [1] [µM] | MIC-fold improvement vs. vancomycin (MRSA KS89) | MIC (MRSA KS89) [µM] | IC50 [2] [µM] | MIC-fold improvement vs. vancomycin (MRSA KS2) | MIC (MRSA KS2) [µM] | MIC (E. faecalis VRE 6) [µM] | MIC-fold improvement vs. vancomycin (E. faecalis VRE 6) | MIC (E. faecalis VRE 29) [µM] | MIC (E. faecalis VRE 37) [µM] | IC50 [3] [µM] | MIC (S. aureus VRSA) [µM] | MIC-fold improvement vs. vancomycin (S. aureus VRSA) | MIC [4] [µM] | MIC-fold improvement vs. vancomycin [4] | MIC (E. faecalis VSE 1) [µM] | also measured
1 | CNC(CC(C)C)C(=O)NC1C(=O)NC(CC(N)=O)C(=O)NC2C(=O)NC3C(=O)NC(C(=O)NC(C(=O)NCC(=O)Nc4cccc(OC)c4)c4cc(O)cc(O)c4-c4cc3ccc4O)C(O)c3ccc(c(Cl)c3)Oc3cc2cc(c3OC2OC(CO)C(O)C(O)C2OC2CC(C)(N)C(O)C(C)O2)Oc2ccc(cc2Cl)C1O (centres unmarked) [Vanc-12] | 2 | 0.39 (≈ 0.628 µg/mL) | 0.39 (≈ 0.628 µg/mL) | 16 | > 250 | 2 | 0.39 (≈ 0.628 µg/mL) | > 250 | 2 | 0.39 (≈ 0.628 µg/mL) | 6.25 (≈ 10.1 µg/mL) | 32 | 12.5 (≈ 20.1 µg/mL) | 25 (≈ 40.3 µg/mL) | 194 ± 78 | 12.5 (≈ 20.1 µg/mL) | 8 | 0.39 (≈ 0.628 µg/mL) | 2 | 0.78 (≈ 1.26 µg/mL) | MIC-fold improvement vs. vancomycin (E. faecalis VSE 1): 2; IC50 [5]: 231 µM; MIC (E. faecalis VRE 53): 12.5 µM (≈ 20.1 µg/mL); MIC-fold improvement vs. vancomycin (E. faecalis VRE 53): 32; MIC-fold improvement vs. vancomycin (MRSA KS6): 1; MIC (MRSA KS6): 0.78 µM (≈ 1.26 µg/mL)
2 | CCc1ccc(NC(=O)CNC(=O)[C@H]2NC(=O)[C@H]3NC(=O)[C@H](NC(=O)[C@@H]4NC(=O)[C@H](CC(N)=O)NC(=O)[C@H](NC(=O)[C@@H](CC(C)C)NC)[C@H](O)c5ccc(c(Cl)c5)Oc5cc4cc(c5O[C@@H]4O[C@H](CO)[C@@H](O)[C@H](O)[C@H]4O[C@H]4C[C@](C)(N)[C@H](O)[C@H](C)O4)Oc4ccc(cc4Cl)[C@H]3O)c3ccc(O)c(c3)-c3c(O)cc(O)cc32)cc1 [Vanc-13] | 2 | 0.39 (≈ 0.628 µg/mL) | 0.39 (≈ 0.628 µg/mL) | 16 | > 250 | 2 | 0.39 (≈ 0.628 µg/mL) | > 250 | 4 | 0.20 (≈ 0.322 µg/mL) | 12.5 (≈ 20.1 µg/mL) | 16 | 12.5 (≈ 20.1 µg/mL) | 3.13 (≈ 5.04 µg/mL) | 149 ± 6 | 3.13 (≈ 5.04 µg/mL) | 32 | 0.39 (≈ 0.628 µg/mL) | 2 | 0.39 (≈ 0.628 µg/mL) | MIC-fold improvement vs. vancomycin (E. faecalis VRE 37): 256; MIC-fold improvement vs. vancomycin (E. faecalis VSE 1): 4; IC50 [5]: 216 µM; MIC (E. faecalis VRE 53): 12.5 µM (≈ 20.1 µg/mL); MIC-fold improvement vs. vancomycin (E. faecalis VRE 53): 32; MIC-fold improvement vs. vancomycin (MRSA KS6): 2; MIC (MRSA KS6): 0.39 µM (≈ 0.628 µg/mL)
3 | CN[C@H](CC(C)C)C(=O)N[C@H]1C(=O)N[C@@H](CC(N)=O)C(=O)N[C@H]2C(=O)N[C@H]3C(=O)N[C@H](C(=O)N[C@H](C(=O)NCC(=O)Nc4ccc(C)cc4C)c4cc(O)cc(O)c4-c4cc3ccc4O)[C@H](O)c3ccc(c(Cl)c3)Oc3cc2cc(c3O[C@@H]2O[C@H](CO)[C@@H](O)[C@H](O)[C@H]2O[C@H]2C[C@](C)(N)[C@H](O)[C@H](C)O2)Oc2ccc(cc2Cl)[C@H]1O [Vanc-15] | 1 | 0.78 (≈ 1.26 µg/mL) | 1.56 (≈ 2.51 µg/mL) | 4 | > 250 | 1 | 0.78 (≈ 1.26 µg/mL) | > 250 | 2 | 0.39 (≈ 0.628 µg/mL) | 6.25 (≈ 10.1 µg/mL) | 32 | 12.5 (≈ 20.1 µg/mL) | 25 (≈ 40.2 µg/mL) | 87 ± 12 | 12.5 (≈ 20.1 µg/mL) | 8 | 0.78 (≈ 1.26 µg/mL) | 1 | 1.56 (≈ 2.51 µg/mL) | MIC-fold improvement vs. vancomycin (E. faecalis VRE 29): 32; MIC-fold improvement vs. vancomycin (E. faecalis VRE 37): 16; MIC-fold improvement vs. vancomycin (E. faecalis VSE 1): 1; IC50 [5]: 196 µM; MIC (E. faecalis VRE 53): 25 µM (≈ 40.2 µg/mL); MIC-fold improvement vs. vancomycin (E. faecalis VRE 53): 16; MIC-fold improvement vs. vancomycin (MRSA KS6): 1; MIC (MRSA KS6): 0.78 µM (≈ 1.26 µg/mL)
4 | CN[C@H](CC(C)C)C(=O)N[C@H]1C(=O)N[C@@H](CC(N)=O)C(=O)N[C@H]2C(=O)N[C@H]3C(=O)N[C@H](C(=O)N[C@H](C(=O)NCC(=O)Nc4ccc(F)cc4F)c4cc(O)cc(O)c4-c4cc3ccc4O)[C@H](O)c3ccc(c(Cl)c3)Oc3cc2cc(c3O[C@@H]2O[C@H](CO)[C@@H](O)[C@H](O)[C@H]2O[C@H]2C[C@](C)(N)[C@H](O)[C@H](C)O2)Oc2ccc(cc2Cl)[C@H]1O [Vanc-16] | 1 | 0.78 (≈ 1.26 µg/mL) | 0.78 (≈ 1.26 µg/mL) | 8 | > 250 | 1 | 0.78 (≈ 1.26 µg/mL) | > 250 | 1 | 0.78 (≈ 1.26 µg/mL) | 12.5 (≈ 20.2 µg/mL) | 16 | >50 | 50 (≈ 80.9 µg/mL) | 184 ± 60 | 25 (≈ 40.4 µg/mL) | 4 | 0.78 (≈ 1.26 µg/mL) | 1 | 0.78 (≈ 1.26 µg/mL) | MIC-fold improvement vs. vancomycin (E. faecalis VRE 29): <8; MIC-fold improvement vs. vancomycin (E. faecalis VRE 37): 8; MIC-fold improvement vs. vancomycin (E. faecalis VSE 1): 2; IC50 [5]: 228 µM; MIC (E. faecalis VRE 53): 25 µM (≈ 40.4 µg/mL); MIC-fold improvement vs. vancomycin (E. faecalis VRE 53): 16; MIC-fold improvement vs. vancomycin (MRSA KS6): 1; MIC (MRSA KS6): 0.78 µM (≈ 1.26 µg/mL)
5 | CN[C@H](CC(C)C)C(=O)N[C@H]1C(=O)N[C@@H](CC(N)=O)C(=O)N[C@H]2C(=O)N[C@H]3C(=O)N[C@H](C(=O)N[C@H](C(=O)NCC(=O)Nc4cc(OC)cc(OC)c4)c4cc(O)cc(O)c4-c4cc3ccc4O)[C@H](O)c3ccc(c(Cl)c3)Oc3cc2cc(c3O[C@@H]2O[C@H](CO)[C@@H](O)[C@H](O)[C@H]2O[C@H]2C[C@](C)(N)[C@H](O)[C@H](C)O2)Oc2ccc(cc2Cl)[C@H]1O [Vanc-17] | 1 | 0.78 (≈ 1.28 µg/mL) | 0.78 (≈ 1.28 µg/mL) | 8 | > 250 | 1 | 0.78 (≈ 1.28 µg/mL) | > 250 | 2 | 0.39 (≈ 0.64 µg/mL) | 6.25 (≈ 10.3 µg/mL) | 32 | 25 (≈ 41 µg/mL) | 50 (≈ 82.1 µg/mL) | 119 ± 48 | 12.5 (≈ 20.5 µg/mL) | 8 | 0.78 (≈ 1.28 µg/mL) | 1 | 0.78 (≈ 1.28 µg/mL) | MIC-fold improvement vs. vancomycin (E. faecalis VRE 29): 16; MIC-fold improvement vs. vancomycin (E. faecalis VRE 37): 8; MIC-fold improvement vs. vancomycin (E. faecalis VSE 1): 2; IC50 [5]: 206 µM; MIC (E. faecalis VRE 53): 25 µM (≈ 41 µg/mL); MIC-fold improvement vs. vancomycin (E. faecalis VRE 53): 16; MIC-fold improvement vs. vancomycin (MRSA KS6): 1; MIC (MRSA KS6): 0.78 µM (≈ 1.28 µg/mL)
